Laboratory results reported in a compilation of properties of binary mixtures (doi:10.1007/s10953-010-9507-z).

Experiment: xn = mol fraction of the nth substance listed
Conditions: 298.15 K, 101 kPa

Compound | viscosity (x1 = 0.0522) | viscosity (x1 = 0.1818) | viscosity (x1 = 0.2982) | viscosity (x1 = 0.4204) | viscosity (x1 = 0.4752) | viscosity (x1 = 0.5937) | viscosity (x1 = 0.6953) | viscosity (x1 = 0.7954) | viscosity (x1 = 0.8933) | viscosity (x2 = 0.0793) | viscosity (x2 = 0.1393) | viscosity (x2 = 0.2058) | viscosity (x2 = 0.2578) | viscosity (x2 = 0.345) | viscosity (x2 = 0.384) | viscosity (x2 = 0.4122) | viscosity (x2 = 0.5622) | viscosity (x2 = 0.688) | viscosity (x2 = 0.7967) | viscosity (x2 = 0.8984)
CCOC(C)=O + CCCC[n+]1ccn(C)c1.O=S(=O)([N-]S(=O)(=O)C(F)(F)F)C(F)(F)F | 44.4 mPa·s | 30.6 mPa·s | 21.1 mPa·s | 13.67 mPa·s | 10.91 mPa·s | 6.54 mPa·s | 3.93 mPa·s | 2.21 mPa·s | 1.105 mPa·s |  |  |  |  |  |  |  |  |  |  | 
CCCC[n+]1ccn(C)c1.O=S(=O)([N-]S(=O)(=O)C(F)(F)F)C(F)(F)F + CCO |  |  |  |  |  |  |  |  |  | 42.6 mPa·s | 36.8 mPa·s | 31.4 mPa·s | 27.3 mPa·s | 21.6 mPa·s | 19.4 mPa·s | 17.91 mPa·s | 11.15 mPa·s | 7.11 mPa·s | 4.36 mPa·s | 2.46 mPa·s
